Test results reported in patent US9216187B2, “Soyasapogenol composition” (J-OIL MILLS, INC., priority 2011, dated 2015).

Test: Evaluation of absorption of soyasapogenol composition, blood soyasapogenol B at 1 to 12 hours and AUC (Examples 3 to 4)
Type: in vivo
Conditions: rat, plasma, oral, male SD rats, single dose with feeding needle, 100 μmol/kg body weight in terms of saponin aglycone
Description: To each of the obtained plasma, 0.2 M Na acetate buffer solution (pH 5.5) in an amount same as that of the plasma was added. Subsequently, 3000 units of β-glucuronidase (product name: H-2, product of Sigma-Aldrich, Co. LLC) were added, and an enzyme reaction was allowed at 37° C. for 12 hours. After termination of the reaction, 3 ml of a mixture liquid of methanol:acetonitrile (1:1) and internal standard formononetin (product of Sigma-Aldrich, Co. LLC) were added to the enzyme treatment solution, followed by centrifugation, and then a supernatant was collected. An operation of adding 3 ml of the mixture liquid of methanol:acetonitrile (1:1) to a residue and performing centrifugation was repeated twice, and a supernatant was collected after each of the operations. The collected supernatants were mixed and subjected to drying under reduced pressure using a rotary evaporator.
8-week-old male SD rats (Charles River Laboratories Japan, Inc.) were divided into groups so that one group consists of 4 rats, and each of the compositions of Examples 3 and 4 and Comparative Example 1 was suspended into a 0.5% CMC solution, followed by a single dose administration of the suspension in an equivalent amount (100 μmol/kg body weight) in terms of saponin aglycone to each of the rats with a feeding needle. Blood sampling was conducted at 1, 3, 8 and 12 hours after the administration, and plasma was obtained from each of the blood samples. Each of the obtained plasma was subjected to the pre-treatment and the HPLC-MS analysis in the same manner as in Example 1 to examine the soyasapogenol B concentration in the blood. The blood soyasapogenol B concentration at 1 to 12 hours after the administration and AUCs (areas under curve of the blood concentration) are shown in Table 3.

AUC (100 umol/kg, 1 to 12 hours, read-out: AUC (area under curve of the blood soyasapogenol B concentration)): 2910 ng·h/mL
concentration at 1 h (1 hour, read-out: Blood Soyasapogenol B Concentration 1 hour after): 317 ng/mL
concentration at 3 h (3 hours, read-out: Blood Soyasapogenol B Concentration 3 hours after): 280 ng/mL
concentration at 8 h (8 hours, read-out: Blood Soyasapogenol B Concentration 8 hours after): 293 ng/mL
concentration at 12 h (12 hours, read-out: Blood Soyasapogenol B Concentration 12 hours after): 68.1 ng/mL
SMILES: CC1(C)C[C@@H](O)[C@]2(C)CC[C@]3(C)C(=CC[C@@H]4[C@@]5(C)CC[C@H](O)[C@](C)(CO)[C@@H]5CC[C@]43C)[C@@H]2C1 [Comp. Ex. 1, soyasapogenol B]
